Columns and labels:
[1] = test system: spinal cord tissues of EAE mice model; assay: Inflammatory cell infiltration in spinal cord tissues of EAE mice model (HE staining); assay type: in vivo; details: day 29, positive control drug, dose not given
Experimental: Preparation of mice model and administration: experimental autoimmune encephalomyelitis (EAE) mice model is an important tool for studying various human nervous system demyelinating diseases. In the present experiment, the preparation of EAE mice model was performed by immunizing female C57BL/6J mice with myelin sheath oligodendroglial cell surface glycoprotein MOG35-55. That is, the mice were subcutaneously injected at dorsal part of spinal column with 0.2 mL of MOG35-55 antigen elixir, and 0.2 ml of bordetella pertussis solution was intraperitoneally injected at the time of immunization injection and 48 h thereafter, respectively. […]
Experimental method: the mice were anesthetized with 10% chloral hydrate on the 29th day of experiment, fixed by perfusion of 4% paraformaldehyde, spinal cord tissues were taken for making paraffin sections, section thickness 5 μm. Stained with HE, observed under microscope, and scored according to the following standard: 0 score, absence of cell infiltration; 1 score, spinal meninge cell infiltration; 2 score, 1 to 4 small ranges of cell infiltration around vessels; 3 score, 5 or more small ranges of cell infiltration around vessels, or one or more accumulatively substantial large range of cell infiltration; 4 score, a large number of cell infiltration ranges accumulatively existing in 20% or more of white matter regions.

[2] = test system: experimental autoimmune encephalomyelitis (EAE) mice model; assay: Nervous function score in EAE mice model; assay type: in vivo, C57BL/6J mice; details: peak of attack, positive control drug, dose not given
Experimental: (§1) Preparation of mice model and administration: experimental autoimmune encephalomyelitis (EAE) mice model is an important tool for studying various human nervous system demyelinating diseases. In the present experiment, the preparation of EAE mice model was performed by immunizing female C57BL/6J mice with myelin sheath oligodendroglial cell surface glycoprotein MOG35-55. That is, the mice were subcutaneously injected at dorsal part of spinal column with 0.2 mL of MOG35-55 antigen elixir, and 0.2 ml of bordetella pertussis solution was intraperitoneally injected at the time of immunization injection and 48 h thereafter, respectively. The composition of morroniside and loganin was intragastrically administered after the last injection of bordetella pertussis solution, for consecutive 3 weeks.
Nervous function test method: the ethological changes of mice were observed by two experimenters every day using blind method. Scoring standard: 0 score, absence of symptom; 1 score, decrease of tail tension, evident slight gait awkward; 2 score, disappearance of tail tension, moderate gait abnormal, deficient in maintaining gesture; 3 score, limb strength weak; 4 score, limb paralysis; 5 score, near death or died.

[3] = test system: experimental autoimmune encephalomyelitis (EAE) rats model; assay: Nervous function damage in EAE rats model; assay type: in vivo, Lewis rats; details: peak of attack, positive control drug, dose not given
Experimental: (§2) Preparation of rat model and administration: in this experiment, the preparation of EAE rat model was performed by multipoint immunizing female Lewis rats subcutaneously at tail root with a homogenate of spinal cord and cerebral gray matter of Guinea pig as well as complete Freund's adjuvant after emulsification. They were intragastrically administered with a composition of morroniside and loganin for 3 weeks.
Nervous function test method: the ethological changes of rats were observed by two experimenters using blind method every day. Scoring standard: 0 score, absence of symptom; 1 score, decrease of tail tension, visible evident slight gait awkward; 2 score, double hind limbs weak, walk difficult; 3 score, double hind limbs paralysis; 4 score, double hind limbs paralysis and fore limbs weak; 5 score, four limbs paralysis; 6 score, near death or died.

[4] = test system: myelin sheath of spinal cord in EAE model mice; assay: Myelinoclasis of spinal cord in EAE mice model (LFB staining); assay type: in vivo; details: day 29, positive control drug, dose not given
Experimental: as §1
Experimental method: the mice were anesthetized with 10% chloral hydrate on the 29th day of experiment, fixed by perfusion of 4% paraformaldehyde, myeloid tissues were taken for making paraffin sections, section thickness 5 μm. Stained with LFB, observed under microscope, and scored according to the following standard: 0 score, absence of myelinoclasis; 1 score, one small range of myelinoclasis; 2 score, 2 or 3 small ranges of myelinoclasis; 3 score, 1 to 2 large ranges of myelinoclasis; 4 score, large ranges of myelinoclasis accumulatively existing in 20% or more of white matter regions.

IL-6 = assay: Serum IL-6 content in EAE mice model (ELISA); assay type: in vivo; details: serum of EAE mice; positive control drug, dose not given
Experimental: as §1
(§3) Experimental method: mice were anesthetized with pentobarbital sodium, blood sample was taken from abdominal aorta, stood at room temperature for 2 h, centrifuged at 3000 rpm for 20 min, and supernatant was taken, stored at −80° C. for use. The operation was performed strictly according to the steps of specification of ELISA kit. Optical density was measured with ELIASA at 450 nm. The corresponding contents of IL-1 and IL-6 were calculated with the measured OD values on standard curve.

[5] = Body weight drop in EAE rat model; assay type: in vivo, Lewis rats; details: EAE rats, peak of attack; positive control drug, dose not given
Experimental: as §2
Experimental method: the methods for modeling and administration were the same of Experiment 7. The body weight changes of rats were recorded every day.

IL-1 = assay: Serum IL-1 content in EAE mice model (ELISA); assay type: in vivo; details: serum of EAE mice; positive control drug, dose not given
Experimental: as §1, §3

[6] = test system: CNPase (marker protein of mature oligodendroglial cells); assay: CNPase content in spinal cord of EAE model mice (Western blot); assay type: in vivo; details: positive control drug, dose not given
Experimental: as §1
Experimental method: the mice were anesthetized and sacrificed, fresh spinal cord was taken on ice, total protein was extracted by clearage on ice, to prepare Western blot sample, added with CNPase primary antibody and incubated, added with corresponding secondary antibody, ECL colorated, Kodak film exposed. Pictures were analyzed with Image J software and standardized with actin.

[7] = Body weight drop in EAE mice model; assay type: in vivo, C57BL/6J mice; details: peak of attack, positive control drug, dose not given
Experimental: as §1
Experimental method: the methods for modeling and administration were the same of Experiment 1. The body weight changes of mice were recorded every day.

CC(=O)OCC(=O)[C@@]1(O)CC[C@H]2[C@@H]3CCC4=CC(=O)C=C[C@]4(C)[C@H]3C(=O)C[C@@]21C [prednisone acetate]
Inflammatory cell infiltration (HE staining score) [1]: 1.16 ± 0.12 score | Nervous function damage score [2]: 1.36 ± 0.62 score | Nervous function damage score [3]: 1.16 ± 1.21 score | Myelinoclasis (LFB staining score) [4]: 0.81 ± 0.21 score | IL-6 content (IL-6): 0.124 ± 0.002 pg/mL | Bodyweight [5]: 198.5 ± 7.1 g | 1L-1 content (IL-1): 0.114 ± 0.001 pg/mL | Oligodendroglial cells (CNPase/actin integration grey level) [6]: 1.18 ± 0.02 | Bodyweight [7]: 20.52 ± 1.19 g
